Measured values taken from the NIST ThermoML archive (doi:10.1021/je700215z).
Numbers after ± are expanded uncertainties.

Assays:
[1] = xn = mol fraction of the nth substance listed

CCC(C)O (stereo not given) [butan-2-ol]
Conditions	surface tension liquid-gas [mN/m]
283.15 K	24.37 ± 0.31
288.15 K	23.95 ± 0.31
293.15 K	23.56 ± 0.31
298.15 K	23.08 ± 0.3
303.15 K	22.75 ± 0.3
308.15 K	22.39 ± 0.3
313.15 K	21.97 ± 0.3

CCC(C)O (stereo not given) [butan-2-ol] + CCCCCC
surface tension liquid-gas [mN/m], [1]
Conditions	283.15 K	288.15 K	293.15 K	298.15 K	303.15 K	308.15 K	313.15 K
x1 = 0.0493	19.75 ± 0.28	19.16 ± 0.28	18.62 ± 0.27	18.11 ± 0.27	17.52 ± 0.26	16.69 ± 0.26	16.33 ± 0.26
x1 = 0.1057	19.84 ± 0.28	19.24 ± 0.28	18.7 ± 0.3	18.14 ± 0.27	17.53 ± 0.26	16.66 ± 0.26	16.26 ± 0.26
x1 = 0.2083	20 ± 0.28	19.36 ± 0.28	18.8 ± 0.3	18.21 ± 0.27	17.62 ± 0.27	16.81 ± 0.26	16.41 ± 0.26
x1 = 0.3004	20.18 ± 0.28	19.52 ± 0.28	18.95 ± 0.27	18.37 ± 0.27	17.82 ± 0.27	17.08 ± 0.26	16.7 ± 0.26
x1 = 0.4002	20.43 ± 0.28	19.77 ± 0.28	19.21 ± 0.28	18.67 ± 0.27	18.16 ± 0.27	17.5 ± 0.26	17.13 ± 0.26
x1 = 0.4962	20.72 ± 0.29	20.13 ± 0.28	19.6 ± 0.28	19.09 ± 0.28	18.6 ± 0.3	18.01 ± 0.27	17.62 ± 0.27
x1 = 0.5948	21.1 ± 0.29	20.57 ± 0.29	20.13 ± 0.28	19.61 ± 0.28	19.18 ± 0.28	18.6 ± 0.27	18.22 ± 0.27
x1 = 0.6968	21.64 ± 0.29	21.2 ± 0.29	20.76 ± 0.29	20.26 ± 0.28	19.84 ± 0.28	19.33 ± 0.28	18.92 ± 0.27
x1 = 0.8018	22.35 ± 0.3	21.9 ± 0.29	21.52 ± 0.29	21.04 ± 0.29	20.67 ± 0.29	20.18 ± 0.28	19.74 ± 0.28
x1 = 0.8964	23.18 ± 0.3	22.74 ± 0.3	22.34 ± 0.3	21.88 ± 0.29	21.52 ± 0.29	21.12 ± 0.29	20.73 ± 0.29
x1 = 0.9492	23.73 ± 0.31	23.31 ± 0.3	22.9 ± 0.3	22.43 ± 0.3	22.11 ± 0.3	21.73 ± 0.29	21.33 ± 0.29

CCCCCC [hexane]
Conditions	surface tension liquid-gas [mN/m]
283.15 K	19.63 ± 0.28
288.15 K	19.04 ± 0.28
293.15 K	18.52 ± 0.27
298.15 K	18.06 ± 0.27
303.15 K	17.53 ± 0.26
308.15 K	16.74 ± 0.26
313.15 K	16.47 ± 0.26

CCCCO [butan-1-ol]
Conditions	surface tension liquid-gas [mN/m]
283.15 K	25.55 ± 0.29
288.15 K	25.12 ± 0.29
293.15 K	24.78 ± 0.29
298.15 K	24.25 ± 0.29
303.15 K	23.95 ± 0.29
308.15 K	23.55 ± 0.28
313.15 K	23.15 ± 0.28

CCO [ethanol]
Conditions	surface tension liquid-gas [mN/m]
283.15 K	23.12 ± 0.28
288.15 K	22.75 ± 0.28
293.15 K	22.28 ± 0.28
298.15 K	21.86 ± 0.27
303.15 K	21.49 ± 0.27
308.15 K	21.15 ± 0.27
313.15 K	20.66 ± 0.27
